We go through four compounds from patent publication US5334703A, “Chromogenic substrate” (Chromonogenix AB, priority 1989, dated 1994).

The test system of the assay is activated LAL (Limulus Amebocyte Lysate). Briefly: Single-stage chromogenic LAL-test (hydrolysis of the chromogenic substrate by endotoxin-activated LAL, pNA read at 405 nm). In kind it is biochemical, Limulus Potyphemus. Particulars: substrate concentration 2.2 mM in the reaction solution; endotoxin 0.1-1.2 EU/ml; Tris buffer pH 7.9; 37° C., 15 min; absorbance 405 nm. As to the method:
A series of endotoxin containing solutions, making up a standard curve in the range 0.1-1.2 EU/ml, were assayed as described below using the different chromogenic substrates. The slopes of the resulting standard curves were compared and the slope for the substrate S-2423 was considered to be 100%.
A reagent (100 μl) consisting of a mixture of LAL (50% of the clotting concentration) and the chromogenic substrate (4.4 mM) in a Tris buffer of pH 7.9 is added to an equal volume of the sample. The resulting reaction (activation of the LAL and the subsequent hydrolyses of the chromogenic substrate)is carried out at 37° C. After 15 min. the reaction is terminated by the addition of 400 μl of acetic acid and the absorbance is read at 405 nm.
Substrate S-2423 (Ac-Ile-Glu-Gly-Arg-pNA.HCl) is taken as standard.

Structures can show the parent of a compound that is named as a salt. Peptide text beside a SMILES is read from it. * marks the point of attachment. pNA = O=[N+]([O-])c1ccc(N*)cc1

For `CC[C@H](C)[C@H](NC(C)=O)C(=O)N[C@@H](CCC(=O)O)C(=O)NCC(=O)N[C@@H](CCCNC(=N)N)C(=O)Nc1ccc([N+](=O)[O-])cc1` [Substrate S-2423, Ac--Ile--Glu--Gly--Arg--pNA.HCl, reference compound] (Ac-IEGR-pNA), the “Relative activity (slope of endotoxin standard curve, S-2423 = 100%)” value is 100%. Consider `CC[C@H](C)[C@H](NC(C)=O)C(=O)N[C@@H](CCC(=O)O)C(=O)NCC(=O)N[C@@H](CCCCN)C(=O)Nc1ccc([N+](=O)[O-])cc1` [Substrate S-2834, Ac--Ile--Glu--Gly--Lys--pNA.HCl] (Ac-IEGK-pNA), for which the “Relative activity (slope of endotoxin standard curve, S-2423 = 100%)” value is 126%. For `CC[C@H](C)[C@H](NC(C)=O)C(=O)N[C@@H](CO)C(=O)NCC(=O)N[C@@H](CCCCN)C(=O)Nc1ccc([N+](=O)[O-])cc1` [Substrate S-2854, Ac--Ile--Ser--Gly--Lys--pNA.HCl] (Ac-ISGK-pNA), the “Relative activity (slope of endotoxin standard curve, S-2423 = 100%)” value was 131%.

Regarding `CC[C@H](C)[C@H](NC(C)=O)C(=O)N[C@@H](CCC(=O)O)C(=O)OCC(=O)N[C@@H](CCCNC(=N)N)C(=O)Nc1ccc([N+](=O)[O-])cc1` [Substrate S-2860, Ac--Ile--Glu-Glycolyl-Arg--pNA.HCl], the “Relative activity (slope of endotoxin standard curve, S-2423 = 100%)” value was found to be 142%.
